Experimental data published in PubChem BioAssay AID256 (DTP/NCI, 2004).
Values joined by “and” are separate entries in the source; they are usually repeats but may differ in a detail not shown here. Identical values can stand only once. Inconclusive results and toxic doses are left out.

Test system: CD2F1 mice, L1210 leukemia ip, survival T/C
Assay: NCI In Vivo Anticancer Drug Screen. Data for tumor model L1210 Leukemia (intraperitoneal) in CD2F1 (CDF1) mice
Conditions: higher = longer survival
Outline: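 Mice carrying a transplanted tumor received test compound or vehicle alone. The value is the measurement in the treated group divided by that in the vehicle-treated control group.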

NCCCN=c1ccc2c3c1c(O)c1c(O)ccc(=O)c1c3[nH]n2CCNCCO
T/C (endpoint: median survival time, dose: 0.28 mg/kg/injection, schedule: Q03HX008 (ip), vehicle: saline): 162 % of control | T/C (endpoint: median survival time, dose: 0.38 mg/kg/injection, schedule: Q03HX024 (ip), vehicle: saline): 174 % of control | T/C (endpoint: median survival time, dose: 0.45 mg/kg/injection, schedule: Q01DX005 (ip), vehicle: saline): 174 % of control | T/C (endpoint: median survival time, dose: 0.5 mg/kg/injection, schedule: Q01DX009 (ip), vehicle: saline): 241 % of control | T/C (endpoint: median survival time, dose: 0.56 mg/kg/injection, schedule: Q03HX008 (ip), vehicle: saline): 174 % of control | T/C (endpoint: median survival time, dose: 0.75 mg/kg/injection, schedule: Q03HX024 (ip), vehicle: saline): 329 % of control | T/C (endpoint: median survival time, dose: 0.75 mg/kg/injection, schedule: Q04DX003 (ip), vehicle: saline): 231 % of control | T/C (endpoint: median survival time, dose: 0.9 mg/kg/injection, schedule: Q01DX005 (ip), vehicle: saline): 198 % of control | T/C (endpoint: median survival time, dose: 0.9 mg/kg/injection, schedule: Q01DX005 (iv), vehicle: saline): 114 % of control | T/C (endpoint: median survival time, dose: 1.0 mg/kg/injection, schedule: Q01DX009 (ip), vehicle: saline): 217 % of control | T/C (endpoint: median survival time, dose: 1.13 mg/kg/injection, schedule: Q03HX008 (ip), vehicle: saline): 731 % of control | T/C (endpoint: median survival time, dose: 1.5 mg/kg/injection, schedule: Q03HX024 (ip), vehicle: saline): 731 % of control | T/C (endpoint: median survival time, dose: 1.5 mg/kg/injection, schedule: Q04DX003 (ip), vehicle: saline): 186 % of control | T/C (endpoint: median survival time, dose: 1.8 mg/kg/injection, schedule: Q01DX005 (ip), vehicle: saline): 219 % of control | T/C (endpoint: median survival time, dose: 2.0 mg/kg/injection, schedule: Q01DX009 (ip), vehicle: saline): 186 % of control | T/C (endpoint: median survival time, dose: 2.0 mg/kg/injection, schedule: Q01DX009 (ip), vehicle: water): 170 % of control and 365 % of control | T/C (endpoint: median survival time, dose: 2.2 mg/kg/injection, schedule: Q01DX001 (iv), vehicle: water): 103 % of control and 111 % of control | T/C (endpoint: median survival time, dose: 2.25 mg/kg/injection, schedule: Q01DX001 (iv), vehicle: saline): 117 % of control | T/C (endpoint: median survival time, dose: 2.25 mg/kg/injection, schedule: Q03HX008 (ip), vehicle: saline): 280 % of control | T/C (endpoint: median survival time, dose: 3.0 mg/kg/injection, schedule: Q03HX024 (ip), vehicle: saline): 731 % of control | T/C (endpoint: median survival time, dose: 3.0 mg/kg/injection, schedule: Q04DX003 (ip), vehicle: saline): 207 % of control | T/C (endpoint: median survival time, dose: 3.6 mg/kg/injection, schedule: Q01DX005 (ip), vehicle: saline): 426 % of control | T/C (endpoint: median survival time, dose: 3.6 mg/kg/injection, schedule: Q01DX005 (iv), vehicle: saline): 158 % of control | T/C (endpoint: median survival time, dose: 4.0 mg/kg/injection, schedule: Q01DX009 (ip), vehicle: saline): 219 % of control | T/C (endpoint: median survival time, dose: 4.0 mg/kg/injection, schedule: Q01DX009 (ip), vehicle: water): 183 % of control and 192 % of control and 292 % of control | T/C (endpoint: median survival time, dose: 4.5 mg/kg/injection, schedule: Q01DX001 (ip), vehicle: saline): 207 % of control | T/C (endpoint: median survival time, dose: 4.5 mg/kg/injection, schedule: Q01DX001 (ip), vehicle: water): 164 % of control | T/C (endpoint: median survival time, dose: 4.5 mg/kg/injection, schedule: Q01DX001 (iv), vehicle: saline): 123 % of control | T/C (endpoint: median survival time, dose: 4.5 mg/kg/injection, schedule: Q01DX001 (iv), vehicle: water): 108 % of control and 112 % of control | T/C (endpoint: median survival time, dose: 4.5 mg/kg/injection, schedule: Q03HX008 (ip), vehicle: saline): 731 % of control | T/C (endpoint: median survival time, dose: 6.0 mg/kg/injection, schedule: Q03HX024 (ip), vehicle: saline): 731 % of control | T/C (endpoint: median survival time, dose: 6.0 mg/kg/injection, schedule: Q04DX003 (ip), vehicle: saline): 243 % of control | T/C (endpoint: median survival time, dose: 7.2 mg/kg/injection, schedule: Q01DX005 (ip), vehicle: saline): 731 % of control | T/C (endpoint: median survival time, dose: 7.2 mg/kg/injection, schedule: Q01DX005 (iv), vehicle: saline): 187 % of control | T/C (endpoint: median survival time, dose: 8.0 mg/kg/injection, schedule: Q01DX009 (ip), vehicle: saline): 329 % of control | T/C (endpoint: median survival time, dose: 8.0 mg/kg/injection, schedule: Q01DX009 (ip), vehicle: water): 213 % of control and 268 % of control and 333 % of control | T/C (endpoint: median survival time, dose: 8.0 mg/kg/injection, schedule: Q01DX009 (oral), vehicle: saline): 104 % of control | T/C (endpoint: median survival time, dose: 9.0 mg/kg/injection, schedule: Q01DX001 (ip), vehicle: saline): 231 % of control | T/C (endpoint: median survival time, dose: 9.0 mg/kg/injection, schedule: Q01DX001 (ip), vehicle: water): 158 % of control and 183 % of control | T/C (endpoint: median survival time, dose: 9.0 mg/kg/injection, schedule: Q03HX008 (ip), vehicle: saline): 731 % of control | T/C (endpoint: median survival time, dose: 12.0 mg/kg/injection, schedule: Q03HX024 (ip), vehicle: saline): 107 % of control | T/C (endpoint: median survival time, dose: 12.0 mg/kg/injection, schedule: Q04DX003 (ip), vehicle: saline): 731 % of control | T/C (endpoint: median survival time, dose: 14.4 mg/kg/injection, schedule: Q01DX005 (ip), vehicle: saline): 731 % of control | T/C (endpoint: median survival time, dose: 16.0 mg/kg/injection, schedule: Q01DX009 (ip), vehicle: saline): 280 % of control | T/C (endpoint: median survival time, dose: 16.0 mg/kg/injection, schedule: Q01DX009 (ip), vehicle: water): 196 % of control and 337 % of control and 365 % of control | T/C (endpoint: median survival time, dose: 16.0 mg/kg/injection, schedule: Q01DX009 (oral), vehicle: saline): 101 % of control | T/C (endpoint: median survival time, dose: 18.0 mg/kg/injection, schedule: Q01DX001 (ip), vehicle: saline): 268 % of control | T/C (endpoint: median survival time, dose: 18.0 mg/kg/injection, schedule: Q01DX001 (ip), vehicle: water): 216 % of control and 666 % of control | T/C (endpoint: median survival time, dose: 18.0 mg/kg/injection, schedule: Q01DX001 (iv), vehicle: saline): 162 % of control | T/C (endpoint: median survival time, dose: 18.0 mg/kg/injection, schedule: Q03HX008 (ip), vehicle: saline): 365 % of control | T/C (endpoint: median survival time, dose: 24.0 mg/kg/injection, schedule: Q04DX003 (ip), vehicle: saline): 731 % of control | T/C (endpoint: median survival time, dose: 28.8 mg/kg/injection, schedule: Q01DX005 (ip), vehicle: saline): 731 % of control | T/C (endpoint: median survival time, dose: 28.8 mg/kg/injection, schedule: Q01DX005 (iv), vehicle: saline): 104 % of control | T/C (endpoint: median survival time, dose: 32.0 mg/kg/injection, schedule: Q01DX009 (ip), vehicle: saline): 113 % of control | T/C (endpoint: median survival time, dose: 32.0 mg/kg/injection, schedule: Q01DX009 (ip), vehicle: water): 114 % of control and 119 % of control and 88 % of control | T/C (endpoint: median survival time, dose: 32.0 mg/kg/injection, schedule: Q01DX009 (oral), vehicle: saline): 107 % of control | T/C (endpoint: median survival time, dose: 36.0 mg/kg/injection, schedule: Q01DX001 (ip), vehicle: saline): 731 % of control | T/C (endpoint: median survival time, dose: 36.0 mg/kg/injection, schedule: Q01DX001 (ip), vehicle: water): 208 % of control and 466 % of control | T/C (endpoint: median survival time, dose: 36.0 mg/kg/injection, schedule: Q01DX001 (iv), vehicle: saline): 192 % of control | T/C (endpoint: median survival time, dose: 36.0 mg/kg/injection, schedule: Q01DX001 (iv), vehicle: water): 152 % of control | T/C (endpoint: median survival time, dose: 48.0 mg/kg/injection, schedule: Q04DX003 (ip), vehicle: saline): 731 % of control | T/C (endpoint: median survival time, dose: 64.0 mg/kg/injection, schedule: Q01DX009 (ip), vehicle: saline): 90 % of control | T/C (endpoint: median survival time, dose: 64.0 mg/kg/injection, schedule: Q01DX009 (oral), vehicle: saline): 101 % of control | T/C (endpoint: median survival time, dose: 72.0 mg/kg/injection, schedule: Q01DX001 (ip), vehicle: saline): 731 % of control | T/C (endpoint: median survival time, dose: 72.0 mg/kg/injection, schedule: Q01DX001 (ip), vehicle: water): 666 % of control | T/C (endpoint: median survival time, dose: 96.0 mg/kg/injection, schedule: Q04DX003 (ip), vehicle: saline): 219 % of control | T/C (endpoint: median survival time, dose: 128.0 mg/kg/injection, schedule: Q01DX009 (oral), vehicle: saline): 102 % of control | T/C (endpoint: median survival time, dose: 144.0 mg/kg/injection, schedule: Q01DX001 (ip), vehicle: saline): 731 % of control | T/C (endpoint: median survival time, dose: 144.0 mg/kg/injection, schedule: Q01DX001 (ip), vehicle: water): 666 % of control

CC1(C)CCOC(CC(=O)OCc2ccccc2)=N1
T/C (endpoint: mean survival time, dose: 100.0 mg/kg/injection, schedule: Q01DX009 (ip), vehicle: saline with Tween-80): 96 % of control | T/C (endpoint: mean survival time, dose: 100.0 mg/kg/injection, schedule: Q04DX003 (ip), vehicle: saline with Tween-80): 93 % of control | T/C (endpoint: mean survival time, dose: 200.0 mg/kg/injection, schedule: Q01DX009 (ip), vehicle: saline with Tween-80): 96 % of control | T/C (endpoint: mean survival time, dose: 200.0 mg/kg/injection, schedule: Q04DX003 (ip), vehicle: saline with Tween-80): 92 % of control | T/C (endpoint: mean survival time, dose: 400.0 mg/kg/injection, schedule: Q01DX009 (ip), vehicle: saline with Tween-80): 95 % of control | T/C (endpoint: mean survival time, dose: 400.0 mg/kg/injection, schedule: Q04DX003 (ip), vehicle: saline with Tween-80): 88 % of control
